Legend:
[1] = target: Sodium-dependent noradrenaline transporter (Homo sapiens, UniProt P23975); experiment: Inhibition of wild type human NET expressed in HEK293 cells assessed as inhibition of [3H]-MPP+ reuptake preincubated for 5 mins followed by [3H]MPP+ addition and measured after 3 mins by liquid scintillation counting analysis; format: cell-based
[2] = target: Sodium-dependent serotonin transporter (Homo sapiens, UniProt P31645); format: cell-based, HEK293
Description: Inhibition of wild type human SERT expressed in HEK293 cells assessed as inhibition of [3H]-5HT reuptake preincubated for 5 mins followed by [3H]5HT addition and measured after 1 min by liquid scintillation counting analysis

[3] = target: Sodium-dependent dopamine transporter (Homo sapiens, UniProt Q01959); experiment: Inhibition of wild type human dopamine transporter expressed in HEK293 cells assessed as inhibition of [3H]dopamine reuptake preincubated for 5 mins followed by [3H]dopamine addition and measured after 1 min by liquid scintillation analysis; format: cell-based
Sequence of Sodium-dependent dopamine transporter (Q01959 whole entry): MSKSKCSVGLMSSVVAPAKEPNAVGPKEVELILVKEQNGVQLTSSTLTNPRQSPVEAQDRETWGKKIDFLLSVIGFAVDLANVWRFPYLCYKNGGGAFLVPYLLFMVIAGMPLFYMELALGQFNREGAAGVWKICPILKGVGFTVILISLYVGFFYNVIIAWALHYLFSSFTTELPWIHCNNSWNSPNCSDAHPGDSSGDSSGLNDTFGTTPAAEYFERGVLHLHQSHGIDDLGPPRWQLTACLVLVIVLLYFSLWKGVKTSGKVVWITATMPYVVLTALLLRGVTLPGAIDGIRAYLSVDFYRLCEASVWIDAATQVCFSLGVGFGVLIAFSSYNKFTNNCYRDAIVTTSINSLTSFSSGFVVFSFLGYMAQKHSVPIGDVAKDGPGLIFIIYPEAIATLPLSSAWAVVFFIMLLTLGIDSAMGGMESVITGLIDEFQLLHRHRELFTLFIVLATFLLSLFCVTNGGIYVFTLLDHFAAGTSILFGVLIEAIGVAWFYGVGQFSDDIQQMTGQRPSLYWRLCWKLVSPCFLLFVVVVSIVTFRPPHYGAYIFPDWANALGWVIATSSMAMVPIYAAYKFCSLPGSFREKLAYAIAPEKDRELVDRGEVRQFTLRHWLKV

Sequence of Sodium-dependent serotonin transporter (P31645 whole entry): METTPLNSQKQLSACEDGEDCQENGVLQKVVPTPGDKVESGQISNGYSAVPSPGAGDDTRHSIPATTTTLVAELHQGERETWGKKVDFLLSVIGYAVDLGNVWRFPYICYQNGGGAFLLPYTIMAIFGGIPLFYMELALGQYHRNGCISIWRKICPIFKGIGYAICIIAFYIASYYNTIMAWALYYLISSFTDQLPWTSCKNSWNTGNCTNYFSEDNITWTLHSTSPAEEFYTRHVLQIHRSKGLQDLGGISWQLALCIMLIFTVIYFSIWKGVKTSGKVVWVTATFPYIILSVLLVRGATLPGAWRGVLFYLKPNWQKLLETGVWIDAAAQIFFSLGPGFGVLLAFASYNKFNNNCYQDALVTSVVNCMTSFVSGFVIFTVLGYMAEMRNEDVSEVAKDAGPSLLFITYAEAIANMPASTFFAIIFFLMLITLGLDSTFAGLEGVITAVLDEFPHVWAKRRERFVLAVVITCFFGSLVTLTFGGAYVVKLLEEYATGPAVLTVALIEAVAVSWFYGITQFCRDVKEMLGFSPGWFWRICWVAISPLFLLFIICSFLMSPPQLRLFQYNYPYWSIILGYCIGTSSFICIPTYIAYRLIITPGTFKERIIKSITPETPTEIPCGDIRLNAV
Sequence of Sodium-dependent noradrenaline transporter (P23975 whole entry): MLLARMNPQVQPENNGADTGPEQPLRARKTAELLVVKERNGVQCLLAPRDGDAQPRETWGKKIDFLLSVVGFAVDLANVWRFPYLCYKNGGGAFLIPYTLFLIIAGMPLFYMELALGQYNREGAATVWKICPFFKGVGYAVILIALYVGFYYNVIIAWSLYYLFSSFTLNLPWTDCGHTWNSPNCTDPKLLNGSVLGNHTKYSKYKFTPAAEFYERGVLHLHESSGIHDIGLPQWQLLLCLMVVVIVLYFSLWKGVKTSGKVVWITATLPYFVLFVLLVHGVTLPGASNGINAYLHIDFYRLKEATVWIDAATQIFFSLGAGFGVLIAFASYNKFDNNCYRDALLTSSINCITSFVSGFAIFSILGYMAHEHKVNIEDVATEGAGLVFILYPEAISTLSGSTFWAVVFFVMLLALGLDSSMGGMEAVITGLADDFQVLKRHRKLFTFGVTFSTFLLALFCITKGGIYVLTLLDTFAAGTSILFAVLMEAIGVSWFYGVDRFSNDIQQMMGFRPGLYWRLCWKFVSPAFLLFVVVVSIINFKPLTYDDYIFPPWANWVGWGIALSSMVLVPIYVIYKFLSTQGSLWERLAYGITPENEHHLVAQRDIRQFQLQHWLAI

| Compound | IC50 ([1]; hek293) | IC50 ([2]; hek293) | IC50 ([3]; read-out: IC50) [µM] | IC50 ([1]; read-out: IC50) [µM] | IC50 ([3]; hek293) | IC50 ([2]; read-out: IC50) [µM] |
| --- | --- | --- | --- | --- | --- | --- |
| [O-][S@+](Cc1cncs1)[C@@H](c1ccccc1)c1ccc(F)cc1 | Not Active | Not Active | 27.8 |  |  |  |
| Cc1ccc(C(c2ccc(C)cc2)[S+]([O-])Cc2cncs2)cc1 (stereo in doubt; 34b) |  | Not Active | 356 |  |  |  |
| Cc1ccc(C(c2ccc(C)cc2)[S+]([O-])Cc2cncs2)cc1 (racemic) |  |  | 10.6 | 215 |  |  |
| COc1ccc([C@H](c2ccccc2)[S@+]([O-])Cc2cncs2)cc1 | Not Active | Not Active | 65.1 |  |  |  |
| CCCCc1nc(C[S+]([O-])C(c2ccccc2)c2ccccc2)cs1 (centres undefined) |  | Not Active | 13.5 | 164 |  |  |
| [O-][S+](Cc1cnc(C23CC4CC(CC(C4)C2)C3)s1)C(c1ccccc1)c1ccccc1 (centres undefined) |  | Not Active |  |  |  |  |
| [O-][S@+](Cc1cncs1)[C@@H](c1ccccc1)c1ccc(C(F)(F)F)cc1 | Not Active | Not Active |  |  | Not Active |  |
| [O-][S+](Cc1cscn1)C(c1ccc(Cl)cc1)c1ccc(Cl)cc1 (centres undefined) |  | Not Active | 5.04 | 107 |  |  |
| [O-][S@+](Cc1cncs1)[C@H](c1ccccc1)c1ccc(C(F)(F)F)cc1 | Not Active | Not Active |  |  | Not Active |  |
| [O-][S@@+](Cc1cncs1)[C@@H](c1ccccc1)c1ccc(F)cc1 |  | Not Active | 2 | 129 |  |  |
| [O-][S+](Cc1csc(-c2cccs2)n1)C(c1ccccc1)c1ccccc1 (racemic) |  | Not Active | 6.97 | 111 |  |  |
| Cc1ccc([C@H](c2ccccc2)[S@+]([O-])Cc2cncs2)cc1 | Not Active | Not Active | 134 |  |  |  |
| [O-][S+](Cc1csc(C2CC2)n1)C(c1ccc(Cl)cc1)c1ccc(Cl)cc1 (centres undefined) | Not Active | Not Active | 14 |  |  |  |
| [O-][S@+](Cc1cncs1)[C@H](c1ccccc1)c1ccc(F)cc1 |  |  | 8.3 | 230 |  | 145 |
| CCc1nc(C[S+]([O-])C(c2ccccc2)c2ccccc2)cs1 (centres undefined) | Not Active | Not Active | 14.6 |  |  |  |
| [O-][S+](Cc1cncs1)C(c1ccc(Cl)cc1)c1ccc(Cl)cc1 (racemic) |  |  | 4.17 | 45.5 |  | 221 |
| CC(C)(C)c1ncc(C[S+]([O-])C(c2ccccc2)c2ccccc2)s1 (centres undefined) | Not Active | Not Active | 59.7 |  |  |  |
| [O-][S@@+](Cc1cncs1)C(c1ccc(F)cc1)c1ccc(F)cc1 |  | Not Active | 5.3 | 85 |  |  |
| Cc1ccc(C(c2ccc(C)cc2)[S+]([O-])Cc2cscn2)cc1 (centres undefined) | Not Active | Not Active | 7.32 |  |  |  |
| [O-][S+](Cc1nccs1)C(c1ccc(Cl)cc1)c1ccc(Cl)cc1 (centres undefined) | Not Active | Not Active | 9.58 |  |  |  |
| Cc1nc(CSC(c2ccccc2)c2ccccc2)cs1 |  | Not Active | 91.4 | 130 |  |  |
| [O-][S+](Cc1nccs1)C1c2ccccc2-c2ccccc21 (centres undefined) | Not Active | Not Active |  |  | Not Active |  |
| COc1ncc(C[S+]([O-])C(c2ccccc2)c2ccccc2)s1 (centres undefined) |  | Not Active | 72.5 | 139 |  |  |
| [O-][S@@+](Cc1cncs1)[C@@H](c1ccccc1)c1ccc(C(F)(F)F)cc1 | Not Active | Not Active | 39.5 |  |  |  |
| Cc1ccc([C@@H](c2ccccc2)[S@+]([O-])Cc2cncs2)cc1 |  |  | 19.6 | 68.2 |  | 201 |
| COc1ccc(C(c2ccc(OC)cc2)[S+]([O-])Cc2csc(C3CC3)n2)cc1 (centres undefined) | Not Active | Not Active | 105 |  |  |  |

— ChEMBL document CHEMBL4376858, “Structure-Activity Relationships of Novel Thiazole-Based Modafinil Analogues Acting at Monoamine Transporters” (J Med Chem, 2020)
